pIC50: −log10 of the molar value.
Experiments:
A375 [1] = experiment: Cellular growth assay (MTS), 72 h; format: cell-based, human; details: A375, 72 hr treatment, read-out: Growth Inhibition IC50
Description: (§1) Cells were seeded in 96-well plates (2×10^4) in triplicate and allowed to adhere overnight. Fresh media containing KPT-185, KPT-185-trans, KPT-276, or KPT-330 was added to each well at various concentrations (range = 40–10240 nM) and cells were incubated at 37°C/5% CO2 for 72 hours. Cells treated with DMSO (diluent) and untreated cells served as controls. At this time, the percentage of cell growth was evaluated using the MTS assay (CellTiter 96 AQueous Non-Radioactive Cell Proliferation Assay, Promega) and quantified by determining the optical density at 595 nm using a Bio-Rad iMark™ microplate reader. The 4-parameter logistic or Hill model was the assumed dose-response relationship for the in vitro inhibition and cell viability experiments. Nonlinear least squares regression was used to estimate the model parameters and generate 95% confidence intervals for the IC50 estimates. For in vivo experiments, tumor volumes were first log-transformed to meet test assumptions of normality and homoscedasticity. Changes in tumor volumes were analyzed using a two-sample t-test to evaluate the difference from first day of treatment to the last for A375 xenografts (day 17), and from day 1 to day 10 for CHL-1 xenografts as day 10 marks the first mouse sacrificed when 1500 mm^3 tumor volume was reached. ANOVA was used to compare the expression of XPO1 staining among samples from the melanoma tissue core array. The Wilcoxon rank-sum test was used to analyze data comparing growth inhibition and apoptosis of the five metastatic melanoma cell lines to the three melanocyte cell lines.

HEMn-DP [2] = experiment: Cellular growth assay (MTS), 72 h; format: cell-based, human; details: HEMn-DP primary melanocytes, highest concentration 10240 nM
Description: as §1

HEMn-MP [3] = experiment: Cellular growth assay (MTS), 72 h; format: cell-based, human; details: HEMn-MP primary melanocytes, highest concentration 10240 nM
Description: as §1

FO-1 [4] = experiment: Cellular growth assay (MTS), 72 h; format: cell-based, human; details: FO-1, 72 hr treatment, read-out: Growth Inhibition IC50
Description: as §1

CHL-1 [5] = experiment: Cellular growth assay (MTS), 72 h; format: cell-based, human; details: Homo sapiens, CHL-1, 72 hr treatment, read-out: Growth Inhibition IC50
Description: as §1

Hs294T [6] = experiment: Cellular growth assay (MTS), 72 h; format: cell-based; details: Homo sapiens, Hs 294T, 72 hr treatment, read-out: Growth Inhibition IC50
Description: as §1

Wm1366 [7] = experiment: Cellular growth assay (MTS), 72 h; format: cell-based; details: Homo sapiens, Wm1366, 72 hr treatment, read-out: Growth Inhibition IC50
Description: as §1

HEM-l [8] = experiment: Cellular growth assay (MTS), 72 h; format: cell-based; details: Homo sapiens, Melanocyte, HEM-l primary melanocytes, 72 hr treatment, read-out: Growth Inhibition IC50
Description: as §1

melanoma cell lines = experiment: Immunoblot analysis of PARP cleavage; format: cell-based, human; details: KPT-185 at the IC50 for apoptosis for each cell line
Description: Immunoblots were prepared as previously described and probed with antibodies specific for TP53, CDKN1A (p21), XPO1, HDM2 (MDM2), Lamin B (Santa Cruz Biotechnology, Santa Cruz, CA), pMAPK, PARP (Cell Signaling Technology), GAPDH or β-actin (Sigma). Following incubation with the appropriate horseradish peroxidase-conjugated secondary antibody, immune complexes were detected using the ECL Plus detection kit (Amersham Biosciences, Ayesbury, UK).

A375 [9] = experiment: Subcellular fractionation and immunoblot analysis; format: cell-based, human
Description: (§2) Human melanoma cell lines were seeded in 6-well plates (2×10^5) and allowed to adhere overnight. After treatment for various time points, the cells were harvested then fractionated using NE-PER Nuclear and Cytoplasmic Extraction Reagents from Thermo Scientific following the manufacturer's protocol. Nuclear and cytoplasmic fractions were validated via immunoblot analysis using Lamin B and GAPDH antibodies. Immunoblots were prepared as previously described and probed with antibodies specific for TP53, CDKN1A (p21), XPO1, HDM2 (MDM2), Lamin B (Santa Cruz Biotechnology, Santa Cruz, CA), pMAPK, PARP (Cell Signaling Technology), GAPDH or β-actin (Sigma). Following incubation with the appropriate horseradish peroxidase-conjugated secondary antibody, immune complexes were detected using the ECL Plus detection kit (Amersham Biosciences, Ayesbury, UK).

CHL-1 [10] = experiment: Subcellular fractionation and immunoblot analysis; format: cell-based, human
Description: as §2

A375 [11] = experiment: Apoptosis via Annexin V/PI staining, flow cytometry; format: cell-based; details: Homo sapiens, A-375, A375, 72 hr treatment
Description: (§3) Phosphatidyl serine exposure was assessed in tumor cells and melanocytes by flow cytometry using APC-Annexin V and propidium iodide (PI; BD Pharmingen, San Diego, CA) as previously described. Each analysis was performed utilizing at least 10,000 events. We considered the Annexin V positive cells (early apoptosis) and Annexin V/PI double positive cells (late apoptosis) cells as the apoptotic cell population. The 4-parameter logistic or Hill model was the assumed dose-response relationship for the in vitro inhibition and cell viability experiments. Nonlinear least squares regression was used to estimate the model parameters and generate 95% confidence intervals for the IC50 estimates. For in vivo experiments, tumor volumes were first log-transformed to meet test assumptions of normality and homoscedasticity. Changes in tumor volumes were analyzed using a two-sample t-test to evaluate the difference from first day of treatment to the last for A375 xenografts (day 17), and from day 1 to day 10 for CHL-1 xenografts as day 10 marks the first mouse sacrificed when 1500 mm^3 tumor volume was reached. ANOVA was used to compare the expression of XPO1 staining among samples from the melanoma tissue core array. The Wilcoxon rank-sum test was used to analyze data comparing growth inhibition and apoptosis of the five metastatic melanoma cell lines to the three melanocyte cell lines.

FO-1 [12] = experiment: as above; format: cell-based; details: Homo sapiens, FO-1, 72 hr treatment
Description: as §3

Hs294T [13] = experiment: as above; format: cell-based; details: Homo sapiens, Hs 294T, 72 hr treatment
Description: as §3

Wm1366 [14] = experiment: as above; format: cell-based; details: Homo sapiens, Wm1366, 72 hr treatment
Description: as §3

HEM-l [15] = experiment: as above; format: cell-based; details: Homo sapiens, Melanocyte, HEM-l primary melanocytes, 72 hr treatment
Description: as §3

CHL-1 [16] = experiment: as above; format: cell-based; details: Homo sapiens, CHL-1, 72 hr treatment
Description: as §3

A375 [17] = experiment: Cell cycle assay (PI, flow cytometry); format: cell-based, human; details: A375, 1 µM, 24 h or 48 hr, PI staining
Description: (§4) Cell-cycle analysis was conducted using propidium iodide (PI) following the manufacturer's protocol (BD Pharmigen). Cells were plated in 6-well plates and treated for 24 h or 48 hr with 1 µM of KPT-185. A total of 1×10^5 cells per analysis were examined by flow cytometry (FACSCalibur), and analyzed using ModFit LT 3.3.

CHL-1 [18] = experiment: Cell cycle assay (PI, flow cytometry); format: cell-based, human; details: CHL-1, 1 µM, 24 h or 48 hr, PI staining
Description: as §4

HEMn-DP [19] = experiment: Apoptosis via Annexin V/PI staining, flow cytometry; format: cell-based, human; details: HEMn-DP primary melanocytes, 72 hr, range 0–10.24 µM
Description: as §3

HEMn-MP [20] = experiment: as above; format: cell-based, human; details: HEMn-MP primary melanocytes, 72 hr, range 0–10.24 µM
Description: as §3

[21] = Homo sapiens, Melanocyte, read-out: Growth Inhibition IC50

SMILES: COc1cc(-c2ncn(/C=C\C(=O)OC(C)C)n2)cc(C(F)(F)F)c1 [KPT-185]
- pIC50 (A375 [1]): 7.34
- pIC50 (A375 [1]; Homo sapiens, A-375, 72 h): ~7.30
- Growth Inhibition IC50 (HEMn-DP [2]): Not achieved
- pIC50 (HEMn-DP [2]; [21]): < 4.99
- Growth Inhibition IC50 (HEMn-MP [3]): Not achieved
- pIC50 (HEMn-MP [3]; [21]): < 4.99
- pIC50 (FO-1 [4]): 7.49
- pIC50 (FO-1 [4]; Homo sapiens, 72 h): ~7.30
- pIC50 (CHL-1 [5]): 6.23
- pIC50 (Hs294T [6]): 7.31
- pIC50 (Wm1366 [7]): 6.46
- pIC50 (HEM-l [8]): 5.38
- PARP cleavage (melanoma cell lines): cleavage of PARP
- Expression of TP53 protein (A375 [9]; A375 (TP53 WT), 500 nM, nuclear localization at 16 hour): upregulated
- CDKN1A expression (A375 [9]; A375, 500 nM): upregulation
- HDM2 expression in cytoplasmic and nuclear compartment (A375 [9]; A375, KPT-185 at IC50, 16 hr, no detectable protein at basal level): robust expression of HDM2
- Nuclear accumulation of phosphorylated MAPK (A375 [9]; A375, nuclear fraction, immunoblot): accumulated in the nuclear compartment
- TP53 or CDKN1A induction (CHL-1 [10]; CHL-1 (mutated TP53), 500 nM): only limited TP53 or CDKN1A induction
- Nuclear accumulation of phosphorylated MAPK (CHL-1 [10]; CHL-1, nuclear fraction, immunoblot): accumulated in the nuclear compartment
- pIC50 (A375 [11]): 6.83
- pIC50 (FO-1 [12]): 6.53
- pIC50 (Hs294T [13]): 6.67
- pIC50 (Wm1366 [14]): 6.18
- pIC50 (HEM-l [15]): 5.50
- pIC50 (CHL-1 [16]): 5.62
- Cell cycle effect (A375 [17]): arrested in the G1 phase
- Cell cycle effect (CHL-1 [18]): arrested in the G1 phase
- Apoptosis IC50 (HEMn-DP [19]): not achievable
- Apoptosis IC50 (HEMn-DP [19]; listed as KPT185): Not achieved
- Apoptosis IC50 (HEMn-MP [20]): not achievable
- Apoptosis IC50 (HEMn-MP [20]; listed as KPT185): Not achieved
